Experimental data from ChEMBL document CHEMBL1201862, “PubChem BioAssay data set” (2004).
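These data come from cells grown in 96-well plates and exposed to compound for 48 hours at five concentrations. At the GI50, growth is halved.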 Activity calls are given as the source filed them. Rule as the data show it: active = GI50 up to about 1.1 µM and inactive = higher.

Key:
Assay in all cases: NCI tumour cell line growth inhibition, 48 h
[1] = system: LXFL 529
[2] = system: DLD-1
[3] = system: HOP-18
[4] = system: RXF 631
[5] = system: DMS-114
[6] = system: M19-MEL
[7] = system: SNB-78
[8] = system: BT-549
[9] = system: MDA-N

Measured: GI50

Fc1ccc2c(c1)SC1Oc3ccccc3-c3c1c-2nn3-c1ccccc1 (stereo unspecified)
inactive: [1] > 100 µM | [2] > 100 µM | [3] 27 µM | [4] 7.69 µM | [5] > 100 µM | [6] > 100 µM | [7] > 100 µM

O=C(CC1(O)C(=O)Nc2ccc(Br)cc21)c1ccc(Cl)cc1Cl (stereo unspecified)
inactive: [1] 32.4 µM | [2] 47.1 µM | [4] 43.9 µM | [5] 20.9 µM | [6] 14.9 µM | [7] 37.8 µM

Cc1ccc(S(=O)(=O)c2ccccc2[N+](=O)[O-])cc1
inactive: [1] > 100 µM | [2] > 100 µM | [4] 49.1 µM | [5] 44.6 µM | [6] > 100 µM | [7] > 100 µM

COC1OC(COC(C)=O)C(OC(C)=O)C(OC(C)=O)C1NC(=O)N(CCCl)N=O (stereo unspecified)
inactive: [1] > 100 µM | [2] > 100 µM | [3] > 100 µM | [4] > 100 µM | [5] > 100 µM | [6] > 100 µM | [7] > 100 µM

COc1ccc(CN2CC(C)(C)C2=O)c(OC)c1
inactive: [3] > 100 µM | [4] > 100 µM | [5] > 100 µM | [6] > 100 µM | [7] > 100 µM

O=C(CC(=O)C1CCOC1=O)C(=O)Nc1ccc(Cl)cc1 (stereo unspecified)
inactive: [1] > 100 µM | [2] > 100 µM | [4] > 100 µM | [5] > 100 µM | [6] > 100 µM | [7] > 100 µM

CN(C)CC/[N+]([O-])=C(/c1ccccc1)C12CC3CC(CC(C3)C1)C2
inactive: [1] 24 µM | [2] 16.1 µM | [3] 20.9 µM | [4] 14 µM | [5] 20.2 µM | [6] 13.8 µM | [7] 19 µM

COc1ccc2cc3nc(O)cc(O)c3cc2c1OC
inactive: [1] > 100 µM | [3] > 100 µM | [4] > 100 µM | [5] > 100 µM | [6] > 100 µM | [7] > 100 µM

COc1ccc(C2=NNC(=O)OC2c2ccccc2)cc1 (stereo unspecified)
inactive: [1] 70 µM | [3] 57.9 µM | [4] > 100 µM | [5] 71.8 µM | [6] 55.7 µM | [7] 95.7 µM

O=C1C2Nc3ccccc3SC2C(=O)N1c1cccc([N+](=O)[O-])c1 (stereo unspecified)
inactive: [1] 74.3 µM | [2] 48.9 µM | [4] > 100 µM | [5] 44.1 µM | [6] > 100 µM | [7] > 100 µM

COc1ccccc1C(=O)N(Cc1ccccc1)c1ccc(Cl)c(C(=O)OC(C)C)c1
inactive: [8] 34.4 µM | [1] 23 µM | [2] 18.1 µM | [3] 14 µM | [4] 17 µM | [5] 12.6 µM | [9] 38.2 µM | [6] 25.8 µM | [7] 19.1 µM

CCCSS[C@H]1NC(=O)[C@H]1NC(=O)COc1ccccc1
inactive: [1] 5.66 µM | [2] 11.1 µM | [3] 28 µM | [4] 17.5 µM | [5] 19 µM | [6] 17.9 µM | [7] 25.8 µM

O=C1OC(O)C(Oc2ccc(Cl)cc2)=C1Cl (stereo unspecified)
inactive: [1] > 100 µM | [2] > 100 µM | [4] > 100 µM | [5] 39.1 µM | [6] > 100 µM | [7] > 100 µM

CCOC(=O)c1cn2c([nH]c3ccccc32)c(C#N)c1=O
inactive: [1] > 100 µM | [2] 99.5 µM | [3] > 100 µM | [4] > 100 µM | [6] > 100 µM | [7] > 100 µM

[O-][n+]1c(-c2ccccc2)c2nc3ccccc3nc2c2ccccc21
inactive: [1] 7.78 µM | [2] > 100 µM | [4] > 100 µM | [5] > 100 µM | [6] > 100 µM | [7] 27.5 µM
